# In patent publication US11325955B2, “Stabilized anti-microbial peptides for the treatment of antibiotic-resistant bacterial infections” (priority 2017, dated 2022):
# Where two headings read alike, the source gives them in different places. Positions of bridges follow the written chain, without caps; N, C: chain ends. Non-standard residues stand in square brackets, D forms with d. Residues, ends and D or L forms follow the SMILES beside them. S5 = C=CCCC[C@](C)(N)C(=O)O; Nle = CCCC[C@H](N)C(=O)O
# Columns and labels:
# [1] = tested on: E. coli clinical isolates that harbor the MCR-1 plasmid; type: cell-based
# Procedure: StAMPs were screened against a panel of MDR clinical samples obtained from the Antimicrobial Resistance Isolate Bank of the Centers for Disease Control and Prevention (Atlanta, Ga.).
# (§1) The following microbroth dilution protocol was adapted to determine the minimum inhibitory concentration (MIC) of each peptide. First, Mueller-Hinton broth (MHB) was passed through an anion exchange column to remove polyanionic species and generate refined MHB. […] Briefly, bacterial cells were grown overnight in refined MHB at 37° C. and then diluted and allowed to grow again for several hours. Serial dilutions of peptide stocks in water (10 μl) were prepared using clear round-bottom polypropylene 96-well plates. Then 90 μl of bacteria in refined MHB was added to give a final inoculum of 5×10^5 CFU/ml. The plates were then covered with porous tape to reduce evaporation, and incubated for 20-24 hours at 37° C. The MIC is the minimum peptide concentration at which no visible growth was observed.
# The first three StAMPs of Table 2 in Example 3 were then tested against 39 clinical isolates of A. baumannii with various degrees of colistin resistance (Table 3, 4).
# [2] = tested on: primary human renal proximal tubule epithelial cells (pRPTECs); assay: Renal toxicity assay (pRPTEC lysis, LDH release)
# Procedure: (§2) In one embodiment, pRPTECs are seeded at a density of 10,000 cells per well on 96 well plates and incubated for 48 hours at 37° C. Cells are then treated with different concentrations of the StAMP and incubated for another 24-to-48 hour period. Cell viability is then determined and/or lactate dehydrogenase (LDH) release is measured.
# (§3) Briefly, pRPTECs in complete growth cell medium were seeded in a 96 well plate at a density of 10,000 cells per well and incubated at 37° C. for 48 hours. Complete medium was then removed and replaced with a toxicity assay medium to which various concentrations of StAMP were added. Cells were then further incubated for 24 to 48 hours after which cell medium was collected and assayed for the presence of Lactate Dehydrogenase (LDH) using a Cytotoxicity Detection Kit (LDH) (Roche).
# [3] = tested on: human red blood cells (RBCs); assay: Hemolytic activity assay; type: cell-based; conditions: peptide at 25 μg/ml, 1 hour at 37° C.
# Procedure: For the determination of hemolytic activity, human blood samples were centrifuged to isolate red blood cells (RBCs), which are then washed and suspended in phosphate-buffered saline to yield a 1% (v/v) suspension. The suspension was then added to serial dilutions of peptide stocks in water in clear round-bottom polypropylene 96-well plates and the plates were incubated for 1 hour at 37° C. After incubation, the plates were centrifuged and the supernatant was isolated to determine the amount of hemoglobin released using a spectrophotometer (570 nm), according to the equation: % Hemolysis=(Treated Absorbance−Untreated Control Absorbance)/(1% Triton-X100 Treated Absorbance−Untreated Control Absorbance). The minimum hemolytic concentration (MHC) is the peptide concentration at which there is less than 1% hemoglobin release.
# B cereus = type: cell-based
# Procedure: as §1
# S aureus = type: cell-based
# Procedure: as §1
# E coli = type: cell-based
# Procedure: as §1
# P aeruginosa = type: cell-based
# Procedure: as §1
# A baumannii = type: cell-based
# Procedure: as §1
# [4] = tested on: primary human renal proximal tubule epithelial cells (pRPTECs)
# Procedure: as §2, §3
SMILES,"Antimicrobial Activity MIC ([1]; E. coli CDC Bank# 346, contains MCR-1 plasmid) [µg/mL]","Antimicrobial Activity MIC ([1]; E. coli CDC Bank# 349, contains MCR-1 plasmid) [µg/mL]",toxicity on pRPTECs (membranolysis) [2],% Hemolysis at 25 μg/ml [3] [%],MIC B cereus (B cereus) [µg/mL],MIC S aureus (S aureus) [µg/mL],MIC E coli (E coli) [µg/mL],MIC P aeruginosa (P aeruginosa) [µg/mL],MIC A baumannii (A baumannii) [µg/mL],"pRPTEC lysis (% LDH release) compared to Mag(i+4)1,15(A9K) ([4]; 90 minute incubation, FIG. 2)","pRPTEC lysis (% LDH release), long-term lytic activity ([4]; 48 hours incubation, FIG. 3)"
"CCCC[C@H](NC(=O)[C@]1(C)CCCC=CCCC[C@](C)(NC(=O)[C@H](C)NC(=O)[C@H](CCCCN)NC(=O)CNC(=O)[C@H](Cc2ccccc2)NC(=O)[C@H](CCCCN)NC(=O)[C@H](CCCCN)NC(=O)[C@H](CCCCN)NC(=O)[C@H](CO)NC(=O)[C@H](Cc2c[nH]cn2)NC(=O)[C@]2(C)CCCC=CCCC[C@](C)(NC(=O)CN)C(=O)NCC(=O)N[C@@H](CCCCN)C(=O)N[C@@H](Cc3ccccc3)C(=O)N2)C(=O)N[C@@H](C(C)C)C(=O)NCC(=O)N[C@@H](CCC(=O)O)C(=O)N1)C(=O)N[C@@H](CC(N)=O)C(=O)N[C@@H](CO)C(N)=O [Mag(i+4)1,15(A9K), GXGKFXHSKKKFGKAXVGEXBNS] (H-G[S5]GKF[S5]HSKKKFGKA[S5]VGE[S5][Nle]NS-NH2; staple 2-6, 16-20)",1.6,3.1,could cause membranolysis of pRPTECs at relatively low concentrations,1.9,6.2,50,1.6,3.1,1.6,–,–
"CC(C)[C@@H]1NC(=O)[C@@](C)(NC(=O)[C@H](C)NC(=O)[C@H](CCCCN)NC(=O)CNC(=O)[C@H](Cc2ccccc2)NC(=O)[C@H](CCCCN)NC(=O)[C@H](CCCCN)NC(=O)[C@H](CCCCN)NC(=O)[C@H](CO)NC(=O)[C@H](Cc2c[nH]cn2)NC(=O)[C@]2(C)CCCC=CCCC[C@](C)(NC(=O)CN)C(=O)NCC(=O)N[C@@H](CCCCN)C(=O)N[C@@H](Cc3ccccc3)C(=O)N2)CCCC=CCCC[C@@](C)(C(=O)N[C@@H](CCCCN)C(=O)N[C@@H](CC(N)=O)C(=O)N[C@@H](CO)C(N)=O)NC(=O)[C@H](CCC(=O)O)NC(=O)CNC1=O [Mag(i+4)1,15(A9K, B21K), GXGKFXHSKKKFGKAXVGEXKNS] (H-G[S5]GKF[S5]HSKKKFGKA[S5]VGE[S5]KNS-NH2; staple 2-6, 16-20)",–,–,–,–,35.4,>50,3.1,12.5,1.6,markedly reduced lytic activity toward pRPTECs,lowered long-term lytic activity
